Results published in PubChem BioAssay AID1053171 (The Scripps Research Institute Molecular Screening Center, 2014).
The source made the active and inactive calls. How the calls were made is not given here.

Target: HIV-1 integrase (multimerization)
Experiment: HIV-1 integrase multimerization activators, dose response, counter-screen for LEDGF/p75 integration inhibitor project, biochemical, TR-FRET (AID 1053171)

| SMILES | IC50 |
| --- | --- |
| O=C1CCCC(O)=C1N=Nc1ccc(C(=O)O)cc1 | 2.72 µM |
| O=[N+]([O-])c1ccccc1NC(=S)N/N=C/c1ccc(O)c(O)c1 | inactive |
| O=c1c(O)c(-c2ccc(O)c(O)c2)oc2cc(O)cc(O)c12 | 5.34 µM |
| O=C1c2cc(O)c(O)cc2OC(c2ccc(O)c(O)c2)C1O (centres undefined) | inactive |
| C=C1c2cccc(O)c2C(O)=C2C(=O)[C@]3(O)C(O)=C(C(N)=O)C(=O)[C@@H](N(C)C)[C@@H]3[C@@H](O)[C@H]12 | 8.53 µM |
| O=C1/C(=C\c2ccc(O)c(O)c2)C(c2ccccc2)=NN1c1ccccc1 | 8.68 µM |
| CN(C)[C@@H]1C(=O)C(C(N)=O)=C(O)[C@@]2(O)C(=O)C3=C(O)c4c(O)cccc4[C@@](C)(O)C3[C@H](O)C12 (some centres undefined) | inactive |
| C[n+]1c2cc(N)ccc2cc2ccc(N)cc21 | > 17.9 µM (inactive) |
| O=[N+]([O-])c1cc(Br)c(O)c(C=Nc2ccc(N3CCOCC3)cc2)c1 | > 53.8 µM (inactive) |
| O=c1c(O)c(-c2ccc(O)c(O)c2)oc2cc(O)ccc12 | 1.45 µM |
| O=c1cc2c(=O)oc3cc(O)c(O)oc3c2c(O)c1O | 0.354 µM |
| O=C1C=C(O)c2c(O)cc(O)c(O)c2C1=O | 0.085 µM |
| O=C1C=C(Nc2ccccc2O)c2ccccc2C1=O | inactive |
| NC(=O)c1ccc(N=Cc2c(O)n(Cc3ccco3)c(=O)[nH]c2=O)cc1 | > 53.7 µM (inactive) |
| CN(C)C1C(=O)C(C(N)=O)=C(O)C2(O)C(=O)C3=C(O)c4c(O)cccc4C(C)(O)C3C(O)C12 (centres undefined) | inactive |
| NS(=O)(=O)c1ccc(N/N=C/c2ccc(O)c(O)c2O)c([N+](=O)[O-])c1 | 3.4 µM |
| O=C1C=C(O)c2[nH]c(=O)ccc2C1=O | 7.38 µM |
| COc1cc(C)cc(C(=O)O)c1C1=C(O)c2cccc(O)c2C(=O)C1=O | inactive |
| N/C(=N\N=C/c1ccc(-c2ccc(O)c(C(=O)O)c2)o1)N[N+](=O)[O-] | 4.54 µM |
| Cc1cc(C(=O)N/N=C/c2ccc(O)c([N+](=O)[O-])c2)c(C)n1-c1ccc(F)cc1 | inactive |
| Cc1c(CC(=O)N2CCN(C(=O)C3COc4ccccc4O3)CC2)c(=O)oc2c(O)c(O)ccc12 (centres undefined) | > 53.7 µM (inactive) |
| O=C1NC(=Nc2ccc(O)cc2)S/C1=C\C=C\c1ccco1 | inactive |
| CC1=NN(c2cccc(C(=O)O)c2)C(=O)/C1=C\C=C\c1ccco1 | 1.41 µM |
| CN(C)c1ccc(O)c2c1CC1CC3[C@@H](N(C)C)C(=O)C(C(N)=O)=C(O)[C@]3(O)C(=O)C1=C2O (some centres undefined) | 2.53 µM |
